Results published in patent publication US9266933B2, “Polypeptides inhibiting neovascularization and uses thereof” (SHANGHAI FIRST PEOPLE'S HOSPITAL, priority 2011, dated 2016).
Entries after “also recorded” stand apart in the source; their conditions may differ.

What was measured:
[1] = test system: chick embryo chorioallantoic membrane; assay: Angiogenesis in chick embryo chorioallantoic membrane model; type: in vivo; conditions: low (10 μg/piece) and high (50 μg/piece) concentration on filter paper, 2 days, compared with PBS group; **P<0.01
Description: Model of chick embryo chorioallantoic membrane was used and the methods were as follows:
Upon sterilization, the chick fertile eggs of 1-2 days old (purchased from 36 Lianhuaqing Chicken Farm of Shanghai Xinghuo Farm) were placed into a thermhygrostat (purchased from Shanghai Boxun industrial Co., ltd. SPX-250C) (T=37° C., Humidity H=60-70%) to incubate for 5 days. Every day, the eggs were overturned for one time at morning and night. Onto the filter paper (Whatman quantitative filter papers, Sigma, ashless, Grade 42, Cat No 1442-042, 42.5 mm Φ×100 circles) containing cortisone acetate (5 μg/μl, 5 μl/piece), PBS (5 μl/piece), low (2 μg/μl) or high (10 μg/μl) concentration of small peptides ZY3 (5 μl/piece) were dropped respectively. After air-dried, the filter paper was placed between the major vessels on chorioallantoic membrane of fertile eggs and the eggs were sealed. The eggs were placed in the thermhygrostat (T=37° C., Humidity H=60-70%) to incubate for another 2 days (24 hours a day) without overturning. Then the chorioallantoic membrane was thoroughly exposed and photographed (the range was within 5 mm around the filter paper). The number of 3-5 subordinate microvessels in the area within 2.5 mm around the filter paper was counted. SPSS11.0.1 was used for statistical analysis.

[2] = test system: Human Umbilical Vein Endothelial Cells (HUVECs); assay: MTS proliferation assay of VEGF-stimulated HUVECs; type: cell-based; conditions: VEGF + ZY3 in different concentrations, 24-hour incubation, compared with VEGF group; concentration-dependent; *P<0.05, **P<0.01
Description: The MTS method was used as follows:
Primary Human Umbilical Vein Endothelial Cells (HUVECs) (purchased from ScienCell Co.) were inoculated into a 96-well plate with an inoculation concentration of 2×10^4/ml. After cells had adhered to the wall, serum-free culture medium ECM was added and the cells were cultivated at 37° C. for 24 hours. Then the serum-free culture medium ECM as negative control, VEGF (100 ng/ml) (purchased from Sigma Co.) as positive control, VEGF (100 ng/well)+small peptide ZY3 in different concentrations as treatment groups were added in each well. After a 24-hour incubation, 20 μl 1 MTS solution (purchased from Promega Corporation) was added in each well. After incubation at 37° C. for 4 hours, the absorbance in each well was measured at 490 nm by using microplate reader (Bio-Rad Co.). The proliferation activity of cells was determined according to OD490. Finally, SPSS11.0.1 was used for statistical analysis.
Derived Polypeptides were prepared as follows, and the inhibition effect of each ZY3 derived polypeptides on proliferation of Human Umbilical Vein Endothelial Cells HUVECs was determined according to the methods in Example 3.

mouse cornea = assay: Mouse corneal stroma micropocket model of VEGF-induced pathological angiogenesis; type: in vivo, C57BL/6 mice; conditions: VEGF + ZY3 low (0.5 μg/granule) and high (2 μg/granule) concentration, 5 days after operation, compared with VEGF group; **P<0.01
Description: Mice model of the corneal stroma micropocket was used and the methods were as follows:
Male C57BL/6 mice (4-5 week old) were intraperitoneally injected with 2% pentobarbital (about 0.1 ml/mouse) for anesthesia. 4% hydrochloric oxybuprocaine ophthalmic solution was locally administrated. Under the stereo microscope, OT syringe needle and 2 ml syringe needle were used to perform a blunt dissection between the layers of corneal stroma at 0.8-1 mm from corneoscleral limbus. A pouch of about 0.6×0.8 mm was formed. […] Neovascularization area were calculated as followed: Area (mm^2)=0.5*3.14*VL (mm)*CN*0.4 (mm) SPSS1L 0.1 was used for statistical analysis.

[3] = test system: Human Umbilical Vein Endothelial Cells (HUVECs); assay: Matrigel lumen formation assay of HUVECs; type: cell-based; conditions: VEGF + ZY3 in different concentrations (incl. 160 μM), 6 hours, compared with VEGF group; concentration-dependent; *P<0.05
Description: The Matrigel method was used as follows:
A 50 μl/well Matrigel (purchased from BD Co.) was added into a 96-well plate, and then the plate was incubated at 37° C. for 30 min. Upon solidification, the primary HUVECs were inoculated onto the surface of Matrigel with an inoculation concentration of 8×10^6/ml. Then the serum-free culture medium ECM as negative control, VEGF (100 ng/ml) (purchased from Sigma Co.) as positive control, VEGF (100 ng/well)+small peptide ZY3 in different concentrations as treatment groups were added in each well. The plate wad incubated at 37° C. After treating for 6 hours, photos were taken for cells in 3 randomized fields in the plate under the microscope (×200 fold.), and the sum of the maximum lumina diameter formed in the cells was calculated. Finally, SPSS11.0.1 was used for statistical analysis.

TANVTMQLLKIRSGDRPSYVELTFSQH (angiogenesis-inhibiting peptide ZY3)
angiogenesis of chick embryo chorioallantoic membrane (count of 3-5 subordinate microvessels within 2.5 mm around the filter paper) [1]: significant inhabitation effects; also recorded: significantly inhibited | proliferation of HUVECs (OD490, MTS) [2]: significantly inhibited | corneal angiogenesis (neovascularization area on mouse cornea) (mouse cornea): significantly inhibited | lumen formation of HUVECs (sum of maximum lumina diameter) [3]: significantly inhibited
